Assay in all cases: DTP human tumour cell line panel, 48 h
In assay [1] the test system is A498 renal.
For assay [2], the system named is HCT-15 colon.
The subject of assay [3] is HT29 colon.
The test system of assay [4] is LOX IMVI melanoma.
In assay [5] the test system is M14 melanoma.
Assay [6] deals with MCF7 breast.
The subject of assay [7] is MDA-MB-231 breast.
In assay [8] the test system is MOLT-4 leukemia.
Assay [9] relates to PC-3 prostate.
Assay [10] deals with SN12C renal.
Assay [11] relates to 786-0 renal.

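Compound exposure: 48 hours, 5 concentrations, 96-well plates. Abbreviation: GI50, concentration required for 50% inhibition of growth. At the TGI there is no net growth.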

As to `O=C1CN2Cc3cc(N4CCOCC4)ccc3N=C2N1`, the TGI in [1], in [2], in [3], in [4], in assay [5] and in assay [6] was over 100 µM in each case. Moreover, the TGI in [7], in assay [8], in assay [9] and in assay [10] was over 100 µM each time.

For `CCc1n[nH]c(=O)n1/N=C/c1ccccc1Cl`, the TGI in assay [11], in assay [1], in assay [2], in [3], in assay [4] and in [5] was over 100 µM throughout. In addition, the TGI in assay [6], in [7], in [8] and in [10] was over 100 µM in each case.

With `O=[N+]([O-])c1cccc2nc3ccccc3c(NCCc3cccc[n+]3[O-])c12`, the TGI is 0.249 µM in [11]; 0.225 µM in [1]; 0.0639 µM in assay [2]; 0.0628 µM in assay [3]; 0.121 µM in assay [4]; under 0.0172 µM in assay [5]. Also, the TGI stood at 0.276 µM in assay [6], 0.0538 µM in assay [7], 1.51 µM in [9] and 0.28 µM in [10].

For the compound `NCCCNc1nc2ccccc2c2c(=O)c3cc(C(F)(F)F)ccc3sc12`, the GI50 is 1.73 µM in [1], 1.64 µM in assay [5], 1.4 µM in assay [7] and 1.73 µM in assay [10]. In addition, the TGI came to 3.23 µM in [1], 3.12 µM in assay [5], 2.75 µM in [7] and 3.23 µM in assay [10].

For `COCC1CCCN1c1ccc(/C=C(/C#N)C(N)=S)cc1` (stereo not drawn), the GI50 in assay [1] is over 100 µM; in assay [2], over 100 µM; in assay [3], over 100 µM; in [4], over 100 µM; in assay [5] it was over 100 µM; in [6] it was 69.4 µM. Further, the GI50 in [7] is 9.89 µM; in assay [8], over 100 µM; in assay [10] it was 30.5 µM. For the same compound, the TGI in assay [1], in assay [2], in assay [3], in assay [4], in assay [5] and in assay [6] was over 100 µM throughout. Further, the TGI was 55.8 µM in assay [7], over 100 µM in assay [8] and over 100 µM in [10].

On to `CCNC1(c2cccc(C)c2)OC(C)(C)c2cccc3cccc1c23` (stereo not drawn), for which the TGI in [11] turned out to be 37.6 µM; in assay [1], 32.2 µM; in [2], 42.9 µM; in assay [3], 27.8 µM; in [4], 32.6 µM; in assay [5], 38.1 µM. Moreover, the values for the TGI in [6] and in assay [10] were 34.9 µM and 35.9 µM, respectively.

Take `O=c1[nH]c(Nc2cccc(C(F)(F)F)c2)nc2nc[nH]c12`: the TGI in [11], in [2], in assay [3], in assay [4], in [5] and in [6] was over 100 µM throughout. In addition, the TGI in assay [7], in assay [8], in assay [9] and in [10] was over 100 µM in each case.

As to `CCCCC(C)C1CCC2(C)C=CC(=O)C(C)=C2C1O` (stereo not drawn), the concentration for total growth inhibition (TGI) in assay [1], in assay [2], in assay [3], in assay [4], in [6] and in assay [8] was over 100 µM each time. The same compound had a TGI in assay [10] of over 100 µM.

On to `Cc1cccc2c1Oc1ccccc1C2NC(=O)c1ccc([N+](=O)[O-])cc1` (stereo not drawn), for which the TGI in [11], in assay [1], in [2], in assay [3], in [4] and in [5] was over 100 µM each time. In addition, the TGI in assay [7] is over 100 µM; in assay [8] it was over 100 µM; in assay [9], over 100 µM; in [10], 91 µM.

As to `C[C@H](Nc1c(O)c2c(c(O)c1Cl)C(=O)C=CC2=O)C(=O)Nc1ccc([N+](=O)[O-])cc1`, the TGI amounted to 3.23 µM in assay [11]; 4.8 µM in assay [1]; 7.55 µM in [2]; 8.57 µM in assay [3]; 2.53 µM in assay [5]; 3.42 µM in assay [6]. Further, the TGI is 4.22 µM in assay [7], over 10 µM in assay [8], 8.89 µM in assay [9] and 2.99 µM in assay [10].

As for `Nc1c(-c2nc3ccccc3s2)c2ccc([N+](=O)[O-])cc2c(=O)n1-c1cccc(C(=O)O)c1`, the TGI in assay [11] was over 100 µM; in assay [2], over 100 µM; in assay [3] it was over 100 µM; in [4], over 100 µM; in [7], 37.8 µM; in assay [9], over 100 µM. This compound came in with a TGI in [10] of 84.2 µM.

In the case of `CC1(C)CC(=O)C2=C(C1)c1c(ccc3ccccc13)NC2c1cn(Cc2ccc(Cl)cc2)c2ccccc12` (stereo not drawn), the TGI in [11], in [2], in [3], in assay [4], in assay [5] and in [6] was over 100 µM throughout. Besides, the concentration for total growth inhibition (TGI) in [7], in [8], in [9] and in assay [10] was over 100 µM throughout.

Regarding `CCCc1cc(=O)oc2c3c(c4c(c12)OC(C)(C)C=C4)O[C@@H](C)[C@H](C)C3=O`, the TGI in [11] was determined as 38.8 µM; in assay [1], 29.9 µM; in assay [2], 46.1 µM; in assay [3] it was 23.2 µM; in assay [4], 37.3 µM; in assay [6], 46.3 µM. In addition, the TGI is 33.2 µM in [7], 26.8 µM in assay [8], 35.4 µM in [9] and 41.4 µM in [10].

On to `CON(C)C(C#N)=C(C#N)C#N`, for which the TGI in assay [1], in assay [2], in [3], in [4], in [5] and in assay [6] was over 10 µM in each case. In addition, the TGI in assay [7], in [8], in [9] and in assay [10] was over 10 µM throughout.

As a reminder, the TGI is the concentration giving total growth inhibition. By GI50 is commonly meant the concentration at which growth is held to half of that of the control.

The values above are taken from PubChem BioAssay (NCI).
